From US6737383B1, “Herbicidal oxadiazolidines” (priority 1999, dated 2004)

Assays:
bedstraw = experiment: Test B pre/postemergence bedstraw; format: in vivo, Galium aparine; details: Postemergence; for Plant response rating, Bedstraw: scale 0 to 10, 0 is no effect, 10 is complete control; for Bedstraw plant response rating: scale of 0 to 10 where 0 is no effect and 10 is complete control
In short: (§1)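 Test chemicals in a non-phytotoxic solvent mixture with surfactant were sprayed preemergence onto planted seeds and postemergence onto plants 2 to 18 cm tall (1- to 4-leaf stage). After twelve to sixteen days in a greenhouse, injury was visually rated against untreated controls from 0 (no effect) to 10 (complete control).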

blackgrass = experiment: Test B pre/postemergence blackgrass; format: in vivo, Alopecurus myosuroides
In short: as §1

surinam grass = experiment: Test B pre/postemergence surinam grass; format: in vivo, Brachiaria decumbens
In short: as §1

cocklebur = experiment: Test B pre/postemergence cocklebur; format: in vivo, Xanthium strumarium
In short: as §1

corn = experiment: Test B pre/postemergence corn; format: in vivo, Zea mays
In short: as §1

crabgrass = experiment: Test B pre/postemergence crabgrass; format: in vivo, Digitaria sanguinalis
In short: as §1

giant foxtail = experiment: Test B pre/postemergence giant foxtail; format: in vivo, Setaria faberii
In short: as §1

morningglory = experiment: Test B pre/postemergence morningglory; format: in vivo, Ipomoea hederacea
In short: as §1

pigweed = experiment: Test B pre/postemergence pigweed; format: in vivo, Amaranthus retroflexus
In short: as §1

rape = experiment: Test B pre/postemergence rape; format: in vivo, Brassica napus
In short: as §1

soybean = experiment: Test B pre/postemergence soybean; format: in vivo, Glycine max
In short: as §1

sugar beet = experiment: Test B pre/postemergence sugar beet; format: in vivo, Beta vulgaris
In short: as §1

velvetleaf = experiment: Test B pre/postemergence velvetleaf; format: in vivo, Abutilon theophrasti
In short: as §1

wheat = experiment: Test B pre/postemergence wheat; format: in vivo, Triticum aestivum
In short: as §1

wild oat = experiment: Test B pre/postemergence wild oat; format: in vivo, Avena fatua
In short: as §1

purple nutsedge = experiment: Test B pre/postemergence purple nutsedge; format: in vivo, Cyperus rotundus
In short: as §1

rice = experiment: Test B flood test rice; format: in vivo, Oryza sativa
In short: (§2)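 Flood test on plants grown to the 2-leaf stage; treated plants kept in greenhouse twelve to sixteen days, then visually rated against controls on a 0 (no effect) to 10 (complete control) scale.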

smallflower flatsedge = experiment: Test B flood test smallflower flatsedge; format: in vivo, Cyperus difformis
In short: as §2

duck salad = experiment: Test B flood test duck salad; format: in vivo, Heteranthera limosa
In short: as §2

bamyardgrass = experiment: Test B flood test barnyardgrass; format: in vivo, Echinochloa crus-galli
In short: as §2

[1] = Postemergence, Rate 125 g/ha, scale 0 to 10, 0 is no effect, 10 is complete control
[2] = Postemergence, Rate 250 g/ha, scale 0 to 10, 0 is no effect, 10 is complete control
[3] = Postemergence, Rate 500 g/ha, scale of 0 to 10 where 0 is no effect and 10 is complete control
[4] = Preemergence, Rate 62 g/ha, scale 0 to 10 (0 no effect, 10 complete control)
[5] = Preemergence, Rate 125 g/ha, scale of 0 to 10 where 0 is no effect and 10 is complete control
[6] = Preemergence, Rate 250 g/ha, scale of 0 to 10 where 0 is no effect and 10 is complete control
[7] = Preemergence, Rate 500 g/ha, scale 0 to 10, 0 is no effect, 10 is complete control
[8] = Rate 62 g/ha, Postemergence, scale of 0 to 10 where 0 is no effect and 10 is complete control
[9] = Preemergence, Rate 250 g/ha, scale 0 to 10, 0 is no effect, 10 is complete control
[10] = Rate 62 g/ha, flood test species, Pre-emergence, visual evaluation after twelve to sixteen days
[11] = Rate 125 g/ha, under heading Pre-emergence, flood test species, visual evaluation after twelve to sixteen days
[12] = Rate 250 g/ha, Pre-emergence, flood-test species, scale 0 to 10, 0 is no effect, 10 is complete control
[13] = Rate 500 g/ha, Pre-emergence, flood test species, scale 0 to 10 (0 no effect, 10 complete control)

CC(C)N(C(=O)n1oc(=O)n(C(C)CCl)c1=O)c1ccc(F)cc1F (centres unmarked) [Compound 408]
5: B. signalgrass plant response rating (surinam grass; [3]) | Wild oats plant response rating (wild oat; [9])
0: Blackgrass plant response rating (blackgrass; [8]) | Plant response rating, B. signalgrass (surinam grass; [1]) | Plant response rating, B. signalgrass (surinam grass; [2]) | Plant response rating, B. signalgrass (surinam grass; [4]) | B. signalgrass plant response rating (surinam grass; [8]) | Plant response rating, Cocklebur (cocklebur; [1]) | Plant response rating, Cocklebur (cocklebur; [2]) | Plant response rating, Cocklebur (cocklebur; [4]) | Plant response rating, Cocklebur (cocklebur; [5]) | Cocklebur plant response rating (cocklebur; [9]) | Cocklebur plant response rating (cocklebur; [7]) | Cocklebur plant response rating (cocklebur; [8]) | Plant response rating, Corn (corn; [1]) | Plant response rating, Corn (corn; [2]) | Corn plant response rating (corn; [3]) | Plant response rating, Corn (corn; [4]) | Corn plant response rating (corn; [8]) | Plant response rating, Morningglory (morningglory; [4]) | Plant response rating, Morningglory (morningglory; [5]) | Morningglory plant response rating (morningglory; [9]) | Plant response rating, Redroot pigweed (pigweed; [2]) | Plant response rating, Rape (rape; [4]) | Plant response rating, Rape (rape; [5]) | Plant response rating, Soybean (soybean; [4]) | Plant response rating, Soybean (soybean; [5]) | Soybean plant response rating (soybean; [9]) | Soybean plant response rating (soybean; [7]) | Plant response rating, Sugarbeets (sugar beet; [2]) | Plant response rating, Velvetleaf (velvetleaf; [2]) | Plant response rating, Velvetleaf (velvetleaf; [4]) | Plant response rating, Wheat (wheat; [4]) | Plant response rating, Wheat (wheat; [5]) | Plant response rating, Wild oats (wild oat; [4]) | Plant response rating, Nutsedge (purple nutsedge; [4]) | Plant response rating, Nutsedge (purple nutsedge; [5]) | Nutsedge plant response rating (purple nutsedge; [9]) | Nutsedge plant response rating (purple nutsedge; [7]) | Plant response rating, Rice (0 to 10 scale, 0 is no effect, 10 is complete control) (rice; [10]) | Rice plant response rating (0 to 10 scale, 0 is no effect, 10 is complete control) (rice; [11]) | Rice plant response rating (rice; [12]) | Rice plant response rating (rice; [13]) | Plant response rating, S. Flatsedge (0 to 10 scale, 0 is no effect, 10 is complete control) (smallflower flatsedge; [10]) | S. Flatsedge plant response rating (0 to 10 scale, 0 is no effect, 10 is complete control) (smallflower flatsedge; [11]) | S. Flatsedge plant response rating (smallflower flatsedge; [12]) | S. Flatsedge plant response rating (smallflower flatsedge; [13]) | Plant response rating, Ducksalad (0 to 10 scale, 0 is no effect, 10 is complete control) (duck salad; [10]) | Ducksalad plant response rating (0 to 10 scale, 0 is no effect, 10 is complete control) (duck salad; [11]) | Ducksalad plant response rating (duck salad; [12]) | Ducksalad plant response rating (duck salad; [13]) | Plant response rating, Barnyardgrass (0 to 10 scale, 0 is no effect, 10 is complete control) (bamyardgrass; [10]) | Barnyardgrass plant response rating (0 to 10 scale, 0 is no effect, 10 is complete control) (bamyardgrass; [11]) | Barnyardgrass plant response rating (bamyardgrass; [12]) | Barnyardgrass plant response rating (bamyardgrass; [13])
10: Blackgrass plant response rating (blackgrass; [3]) | Blackgrass plant response rating (blackgrass; [7]) | Plant response rating, Crabgrass (crabgrass; [5]) | Crabgrass plant response rating (crabgrass; [9]) | Crabgrass plant response rating (crabgrass; [7]) | Plant response rating, Giant foxtail (giant foxtail; [4]) | Plant response rating, Giant foxtail (giant foxtail; [5]) | Giant foxtail plant response rating (giant foxtail; [9]) | Giant foxtail plant response rating (giant foxtail; [7]) | Redroot pigweed plant response rating (pigweed; [9]) | Redroot pigweed plant response rating (pigweed; [7])
7: B. signalgrass plant response rating (surinam grass; Preemergence, Rate 500 g/ha, scale of 0 to 10 where 0 is no effect and 10 is complete control) | Plant response rating, Morningglory (morningglory; [2]) | Morningglory plant response rating (morningglory; [3]) | Morningglory plant response rating (morningglory; [7]) | Redroot pigweed plant response rating (pigweed; [3]) | Velvetleaf plant response rating (velvetleaf; [9]) | Velvetleaf plant response rating (velvetleaf; [7]) | Wheat plant response rating (wheat; [7])
3: Cocklebur plant response rating (cocklebur; [3]) | Crabgrass plant response rating (crabgrass; [8]) | Plant response rating, Soybean (soybean; [2]) | Wild oats plant response rating (wild oat; [3]) | Nutsedge plant response rating (purple nutsedge; [3])
9: Bedstraw plant response rating (bedstraw; Rate 500 g/ha) | Plant response rating, Blackgrass (blackgrass; [2]) | Plant response rating, Blackgrass (blackgrass; [5]) | Blackgrass plant response rating (blackgrass; [6]) | Crabgrass plant response rating (crabgrass; [3]) | Plant response rating, Crabgrass (crabgrass; [4]) | Plant response rating, Giant foxtail (giant foxtail; [1]) | Plant response rating, Giant foxtail (giant foxtail; [2]) | Giant foxtail plant response rating (giant foxtail; [3]) | Giant foxtail plant response rating (giant foxtail; [8])
6: Plant response rating, Bedstraw (bedstraw; Rate 125 g/ha) | Bedstraw plant response rating (bedstraw; Rate 62 g/ha) | Plant response rating, Blackgrass (blackgrass; [4]) | Plant response rating, Redroot pigweed (pigweed; [5]) | Rape plant response rating (rape; [9]) | Sugarbeets plant response rating (sugar beet; [3])
8: Plant response rating, Bedstraw (bedstraw; Rate 250 g/ha) | Corn plant response rating (corn; [7]) | Plant response rating, Crabgrass (crabgrass; [2]) | Rape plant response rating (rape; [7]) | Sugarbeets plant response rating (sugar beet; [9]) | Sugarbeets plant response rating (sugar beet; [7]) | Wild oats plant response rating (wild oat; [7])
1: Plant response rating, Velvetleaf (velvetleaf; [5])
2: Plant response rating, Blackgrass (blackgrass; [1]) | Plant response rating, B. signalgrass (surinam grass; [5]) | Plant response rating, Corn (corn; [5]) | Rape plant response rating (rape; [3]) | Plant response rating, Sugarbeets (sugar beet; [4]) | Wheat plant response rating (wheat; [3]) | Plant response rating, Wild oats (wild oat; [5]) | Plant response rating, Nutsedge (purple nutsedge; [2])
4: B. signalgrass plant response rating (surinam grass; [6]) | Corn plant response rating (corn; [9]) | Plant response rating, Crabgrass (crabgrass; [1]) | Plant response rating, Redroot pigweed (pigweed; [4]) | Soybean plant response rating (soybean; [3]) | Plant response rating, Sugarbeets (sugar beet; [5]) | Velvetleaf plant response rating (velvetleaf; [3]) | Wheat plant response rating (wheat; [9])
